Like-named read-outs stand apart in the source and are kept apart here.
How the values were obtained:
[1] = target: T1, recombinant HIV-1 RT (Human immunodeficiency virus type 1 group M subtype B, UniProt P04585); assay: HIV-1 RT RDDP inhibitory activity (Roche colorimetric immunoassay kit); assay type: biochemical
T1 construct: recombinant HIV-1 RT; purchased Roche
Experimental: As described in our previous work, HIV-1 reverse transcriptase (RT) activity was measured using the Roche colorimetric immunoassay kit. DNA synthesis by RT was quantified after 2 h incubation at 37 °C. The reaction included PolyA:oligodT RNA template, recombinant HIV-1 RT, and various substrates, with biotin-DIG-labeled DNA detected via streptavidin-coated ELISA wells. Inhibitor activity was tested by pre-incubating RT with compounds before substrate addition. The absorbance at 405 nm was measured to calculate enzyme activity and IC50 values. […] The experiment was performed in triplicate. The data analysis for obtaining the IC50 values and standard deviation (SD)was performed using nonlinear regression analysis, specifically fitting the dose–response curves to a sigmoidal model (log(inhibitor) vs. response) using the software GraphPad Prism 10.

[2] = target: T2, HIV-1 RT-associated RNase H (Human immunodeficiency virus type 1 group M subtype B, UniProt P04585); assay: RT RNase H polymerase-independent cleavage assay; assay type: biochemical
T2 construct: quantification of RNase H activity of reverse transcriptase (RT) enzyme
Experimental: The HIV-1 RT-associated RNase H activity was measured following the protocol cited by the detection and quantification of RNase H activity of reverse transcriptase (RT) enzyme with a hybrid substrate formed by a fluorescein labeled RNA annealed with Dabcyl DNA. In this assay the reaction mixture containing tris–HCl, pH 7.8, MgCl2, dithiothreitol (DTT), KCl, hybrid RNA/DNA (5′-[…]-3′-fluorescein,5′-[…]-3′-Dabcyl), and RT were incubated for 1 h at 37 °C, the reaction was stopped by the addition of EDTA, and products were measured with a Victor 3 (Perkin PerkinElmer VICTOR X3 Multilabel Counter Microplate Reader, Cridersville, OH, USA ) at 490/528 nm. The experiment was performed in triplicate. IC50 values were determined through nonlinear regression analysis, where the dose–response curves were fitted to a sigmoidal model (log(inhibitor) vs. response) using GraphPad Prism 10 software.

[3] = Cellular viability, CCK cell viability assay; assay type: cell-based; details: human, MRC-5 cells (normal fetal lung fibroblasts)
Experimental: For the evaluation of cytotoxicity, compounds 1–15 were tested in the human normal fetal lung fibroblast MRC-5 cell line using the CCK cell viability assay. Each substance was tested at three different concentrations: 0.1 μM, 1 μM, and 10 μM. […] However, since all viability percentages were above 50%, no CC50 value could be calculated.
The normal human fetal lung fibroblast MRC-5 cell line (SI , 7)was cultured under standard conditions. Compounds were tested at 10 μM, 1 μM, and 0.1 μM. Results are expressed as mean ± standard deviation (SD) from triplicate experiments.
The previously established human normal MRC‐5 (human fetal lung fibroblasts; RRID:CVCL_0440)
approved for vaccine production was obtained, stored and used in a routine manner (1,2) in the
Laboratory of Pharmacology, School of Pharmacy, Aristotle University of Thessaloniki, Greece
(Laboratory of Ioannis S. Vizirianakis, Associate Professor in Molecular Pharmacology and
Pharmacogenomics) (<25 passages was applied). […]
Cell line MRC-5 information
ID/Proper Citation: (RRID:CVCL_0440)
URL: https://web.expasy.org/cellosaurus/CVCL_0440

[4] = target: T2, HIV-1 RT-associated RNase H; set-up: method as in PMID 25092689; details: cited from earlier work
[5] = tested on: HIV-1; details: cited from earlier work

For `O=C1CSC(c2c(Cl)cccc2Cl)N1c1nc(-c2ccc(S(=O)(=O)N3CCOCC3)cc2)cs1` (stereo not shown) [Compound 9, 2-(2,6-Dichlorophenyl)-3-(4-(4-(morpholinosulfonyl)phenyl)thiazol-2-yl)thiazolidin-4-one], which IC50 [1] is on record?
The IC50 was over 4 µM.

What about the inhibition at 4 µM [1] of the same compound?
The inhibition at 4 µM was 2.48%.

What about the IC50 [2] of the same compound?
Its IC50 is 9.01 ± 0.1 µM.

And the viability at 24 h, 10 µM [3]?
Its viability at 24 h, 10 µM is over 50%.

Which IC50 [1] does the source give for `O=C1CSC(c2ccc(F)cc2)N1c1nc(-c2ccc(S(=O)(=O)N3CCOCC3)cc2)cs1` (stereo not shown) [Compound 7, 2-(4-Fluorophenyl)-3-(4-(4-(morpholinosulfonyl)phenyl)thiazol-2-yl)thiazolidin-4-one] here?
Its IC50 is over 4 µM.

What about the inhibition at 4 µM [1] of the same compound?
Its inhibition at 4 µM is 12%.

What about the IC50 [2] of the same compound?
Its IC50 is over 50 µM.

And the viability at 24 h, 10 µM [3]?
Its viability at 24 h, 10 µM is over 50%.

For `Cc1ccnc2c1NC(=O)c1cccnc1N2C1CC1` [Nevirapine, reference compound], which inhibition at 4 µM [1] is on record?
Its inhibition at 4 µM is 93.8%.

For `O=C1CSC(c2c(Cl)cccc2Cl)N1c1nc(-c2ccc(F)cc2)cs1` (stereo not shown) [Compound 10, 2-(2,6-Dichlorophenyl)-3-(4-(4-fluorophenyl)thiazol-2-yl)thiazolidin-4-one], which IC50 [1] is on record?
Its IC50 is over 4 µM.

And the inhibition at 4 µM [1]?
Its inhibition at 4 µM is 1.59%.

What about the IC50 [2] of the same compound?
The IC50 was over 50 µM.

What about the viability at 24 h, 10 µM [3] of the same compound?
Its viability at 24 h, 10 µM is over 50%.

Which results are given for `O=C1CSC(c2c(F)cccc2F)N1c1nc(-c2ccc(F)cc2)cs1` (stereo not shown) [Compound 12, 2-(2,6-Difluorophenyl)-3-(4-(4-fluorophenyl)thiazol-2-yl)thiazolidin-4-one]?
IC50 [1]: > 4 µM; inhibition at 4 µM [1]: 5.86%; IC50 [2]: > 50 µM; viability at 24 h, 10 µM [3]: > 50%

For `O=C1CSC(c2c(F)cccc2Cl)N1c1nc2ccc(C(F)(F)F)cc2s1` (stereo not shown) [Compound 11, 2-(2-Chloro-6-fluorophenyl)-3-(6-(trifluoromethyl)benzo[d]thiazol-2-yl)thiazolidin-4-one], which IC50 [1] is on record?
The IC50 was 0.32 ± 0.03 µM.

And the inhibition at 4 µM [1]?
The inhibition at 4 µM was 92.4%.

And the IC50 [2]?
Its IC50 is 25.4 ± 0.4 µM.

What about the viability at 24 h, 10 µM [3] of the same compound?
Its viability at 24 h, 10 µM is over 50%.

What does the source list for `COc1ccc(OC)c(C2SCC(=O)N2c2nc(-c3cccc(S(=O)(=O)N4CCCC4)c3)cs2)c1` (stereo not shown) [Compound 4, 2-(2,5-Dimethoxyphenyl)-3-(4-(3-(pyrrolidin-1-ylsulfonyl)phenyl)thiazol-2-yl)thiazolidin-4-one]?
IC50 [1]: 0.58 ± 0.07 µM; inhibition at 4 µM [1]: 86.6%; IC50 [2]: 1.47 ± 0.2 µM; viability at 24 h, 10 µM [3]: > 50%

With `O=C1CSC(c2c(F)cccc2F)N1c1nc(-c2ccc(S(=O)(=O)N3CCOCC3)cc2)cs1` (stereo not shown) [Compound 8, 2-(2,6-Difluorophenyl)-3-(4-(4-(morpholinosulfonyl)phenyl)thiazol-2-yl)thiazolidin-4-one] as the compound, how does the IC50 [1] read?
Its IC50 is over 4 µM.

What about the inhibition at 4 µM [1] of the same compound?
Its inhibition at 4 µM is 33%.

What about the IC50 [2] of the same compound?
Its IC50 is over 50 µM.

What about the viability at 24 h, 10 µM [3] of the same compound?
The viability at 24 h, 10 µM was over 50%.

What does the source list for `O=C1CSC(c2c(Cl)cccc2Cl)N1c1nc2ccc(C(F)(F)F)cc2s1` (stereo not shown) [Compound 15, 2-(2,6-Dichlorophenyl)-3-(6-(trifluoromethyl)benzo[d]thiazol-2-yl)thiazolidin-4-one]?
IC50 [1]: > 4 µM; inhibition at 4 µM [1]: 8.52%; IC50 [2]: > 50 µM; viability at 24 h, 10 µM [3]: 57.9%

For `O=C1CSC(c2ccc(F)cc2)N1c1nc(-c2cccc(S(=O)(=O)N3CCCC3)c2)cs1` (stereo not shown) [Compound 2, 2-(4-Fluorophenyl)-3-(4-(3-(pyrrolidin-1-ylsulfonyl)phenyl)thiazol-2-yl)thiazolidin-4-one], which IC50 [1] is on record?
Its IC50 is over 4 µM.

What about the inhibition at 4 µM [1] of the same compound?
Its inhibition at 4 µM is 8.36%.

What about the IC50 [2] of the same compound?
Its IC50 is over 50 µM.

And the viability at 24 h, 10 µM [3]?
Its viability at 24 h, 10 µM is over 50%.

Which results are given for `COc1ccc(OC)c(C2SCC(=O)N2c2nc(-c3ccc(S(=O)(=O)N4CCOCC4)cc3)cs2)c1` (stereo not shown) [Compound 6, 2-(2,5-Dimethoxyphenyl)-3-(4-(4-(morpholinosulfonyl)phenyl)thiazol-2-yl)thiazolidin-4-one]?
IC50 [1]: 0.72 ± 0.06 µM; inhibition at 4 µM [1]: 81.3%; IC50 [2]: 2.5 ± 0.3 µM; viability at 24 h, 10 µM [3]: > 50%

For `N#Cc1ccc2nc(N3C(=O)CSC3c3c(F)cccc3F)sc2c1` (stereo not shown) [Compound 13, 2-(2-(2,6-Difluorophenyl)-4-oxothiazolidin-3-yl)benzo[d]thiazole-6-carbonitrile], which IC50 [1] is on record?
The IC50 was over 4 µM.

And the inhibition at 4 µM [1]?
The inhibition at 4 µM was 21.4%.

And the IC50 [2]?
Its IC50 is 16.4 ± 1.7 µM.

And the viability at 24 h, 10 µM [3]?
The viability at 24 h, 10 µM was 55%.

For `O=C1CSC(c2ccccc2O)N1c1nc(-c2cccc(S(=O)(=O)N3CCCC3)c2)cs1` (stereo not shown) [Compound 5, 2-(2-Hydroxyphenyl)-3-(4-(3-(pyrrolidin-1-ylsulfonyl)phenyl)thiazol-2-yl)thiazolidin-4-one], which IC50 [1] is on record?
Its IC50 is over 4 µM.

What about the inhibition at 4 µM [1] of the same compound?
Its inhibition at 4 µM is 45.2%.

And the IC50 [2]?
The IC50 was 18 ± 2.1 µM.

What about the viability at 24 h, 10 µM [3] of the same compound?
Its viability at 24 h, 10 µM is over 50%.

Which results are given for `CCOC(=O)C(=O)CC(=O)/C=C/c1cccn1Cc1ccccc1Cl` [RDS1759]?
IC50 ([4]; reference inhibitor): 7.3 ± 0.1 µM; Inhibition of RNase H activity ([4]; selective): low micromolar range; Inhibition of viral replication [5]: low micromolar range

With `O=C1CSC(c2c(F)cccc2F)N1c1nc2cc(-c3ccccc3)c(-c3ccccc3)cc2s1` (stereo not shown) [Compound 14, 2-(2,6-Difluorophenyl)-3-(5,6-diphenylbenzo[d]thiazol-2-yl)thiazolidin-4-one] as the compound, how does the IC50 [1] read?
The IC50 was over 4 µM.

And the inhibition at 4 µM [1]?
Its inhibition at 4 µM is 7.9%.

What about the IC50 [2] of the same compound?
Its IC50 is over 50 µM.

And the viability at 24 h, 10 µM [3]?
The viability at 24 h, 10 µM was over 50%.

For `O=C1CSC(c2ccc(F)cc2)N1c1cccc(S(=O)(=O)Nc2nccs2)c1` (stereo not shown) [Compound 1, 3-(2-(4-Fluorophenyl)-4-oxothiazolidin-3-yl)-N-(thiazol-2-yl)benzenesulfonamide], which IC50 [1] is on record?
The IC50 was 2.23 ± 0.15 µM.

And the inhibition at 4 µM [1]?
The inhibition at 4 µM was 68.3%.

And the IC50 [2]?
The IC50 was 14.3 ± 1.3 µM.

And the viability at 24 h, 10 µM [3]?
The viability at 24 h, 10 µM was over 50%.

Which IC50 [1] does the source give for `O=C1CSC(c2c(F)cccc2F)N1c1nc(-c2cccc(S(=O)(=O)N3CCCC3)c2)cs1` (stereo not shown) [Compound 3, 2-(2,6-Difluorophenyl)-3-(4-(3-(pyrrolidin-1-ylsulfonyl)phenyl)thiazol-2-yl)thiazolidin-4-one] here?
The IC50 was over 4 µM.

What about the inhibition at 4 µM [1] of the same compound?
The inhibition at 4 µM was 24.3%.

And the IC50 [2]?
The IC50 was over 50 µM.

And the viability at 24 h, 10 µM [3]?
The viability at 24 h, 10 µM was over 50%.

Reference: PMC11946194, “Rational Design, Synthesis, and Biological Evaluation of Novel Thiazole/Thiazolidinones Multitarget Anti-Human Immunodeficiency Virus Molecules” (Pharmaceuticals, 2025)
